From the NIST ThermoML archive (doi:10.1016/j.fluid.2010.03.010)

Settings: Liquid, Vibrating tube method

CCCC[n+]1ccn(C)c1.O=S(=O)([N-]S(=O)(=O)C(F)(F)F)C(F)(F)F
Settings	mass density [kg/m3]
293.15 K, 100 kPa	1441.8
293.15 K, 101.33 kPa	1441.34
293.15 K, 250 kPa	1441.9
293.15 K, 500 kPa	1442.1
293.15 K, 1000 kPa	1442.4
293.15 K, 2000 kPa	1443.2
293.15 K, 4990 kPa	1445.4
293.15 K, 10000 kPa	1449
293.15 K, 15000 kPa	1452.5
293.15 K, 20000 kPa	1456
293.15 K, 25010 kPa	1459.3
293.15 K, 30000 kPa	1462.6
293.15 K, 35000 kPa	1465.8
293.15 K, 40000 kPa	1469.1
293.15 K, 45000 kPa	1472.2
293.15 K, 50000 kPa	1475.3
293.15 K, 55000 kPa	1478.3
293.15 K, 59970 kPa	1481.3
294.15 K, 101.33 kPa	1440.37
295.15 K, 101.33 kPa	1439.4
296.15 K, 101.33 kPa	1438.43
297.15 K, 101.33 kPa	1437.46
298.15 K, 101.33 kPa	1436.5
299.15 K, 101.33 kPa	1435.53
300.15 K, 101.33 kPa	1434.57
301.15 K, 101.33 kPa	1433.61
302.15 K, 101.33 kPa	1432.64
303.15 K, 100 kPa	1432.3
303.15 K, 101.33 kPa	1431.69
303.15 K, 250 kPa	1432.4
303.15 K, 500 kPa	1432.6
303.15 K, 1000 kPa	1432.9
303.15 K, 2000 kPa	1433.7
303.15 K, 5000 kPa	1436
303.15 K, 10000 kPa	1439.7
303.15 K, 15000 kPa	1443.3
303.15 K, 20000 kPa	1446.8
303.15 K, 25000 kPa	1450.2
303.15 K, 30000 kPa	1453.6
303.15 K, 34990 kPa	1456.9
303.15 K, 40000 kPa	1460.2
303.15 K, 45010 kPa	1463.4
303.15 K, 50000 kPa	1466.5
303.15 K, 54990 kPa	1469.6
303.15 K, 60010 kPa	1472.7
304.15 K, 101.33 kPa	1430.73
305.15 K, 101.33 kPa	1429.77
306.15 K, 101.33 kPa	1428.82
307.15 K, 101.33 kPa	1427.86
308.15 K, 101.33 kPa	1426.9
309.15 K, 101.33 kPa	1425.95
310.15 K, 101.33 kPa	1425
311.15 K, 101.33 kPa	1424.05
312.15 K, 101.33 kPa	1423.1
313.15 K, 100 kPa	1422.8
313.15 K, 101.33 kPa	1422.15
313.15 K, 250 kPa	1422.9
313.15 K, 500 kPa	1423.1
313.15 K, 1000 kPa	1423.5
313.15 K, 2000 kPa	1424.3
313.15 K, 5000 kPa	1426.6
313.15 K, 10000 kPa	1430.4
313.15 K, 15010 kPa	1434.1
313.15 K, 20010 kPa	1437.7
313.15 K, 25000 kPa	1441.2
313.15 K, 30000 kPa	1444.7
313.15 K, 34990 kPa	1448
313.15 K, 40000 kPa	1451.4
313.15 K, 45010 kPa	1454.6
313.15 K, 50010 kPa	1457.9
313.15 K, 55000 kPa	1461
313.15 K, 60000 kPa	1464.1
314.15 K, 101.33 kPa	1421.2
315.15 K, 101.33 kPa	1420.25
316.15 K, 101.33 kPa	1419.3
317.15 K, 101.33 kPa	1418.36
318.15 K, 101.33 kPa	1417.41
319.15 K, 101.33 kPa	1416.47
320.15 K, 101.33 kPa	1415.53
321.15 K, 101.33 kPa	1414.58
322.15 K, 101.33 kPa	1413.64
323.15 K, 100 kPa	1413.5
323.15 K, 101.33 kPa	1412.7
323.15 K, 250 kPa	1413.6
323.15 K, 500 kPa	1413.8
323.15 K, 1010 kPa	1414.2
323.15 K, 2000 kPa	1415
323.15 K, 4990 kPa	1417.4
323.15 K, 10010 kPa	1421.3
323.15 K, 14990 kPa	1425.1
323.15 K, 20010 kPa	1428.8
323.15 K, 24990 kPa	1432.4
323.15 K, 30010 kPa	1435.9
323.15 K, 35010 kPa	1439.4
323.15 K, 40000 kPa	1442.8
323.15 K, 45000 kPa	1446.1
323.15 K, 50000 kPa	1449.4
323.15 K, 55000 kPa	1452.6
323.15 K, 60000 kPa	1455.8
324.15 K, 101.33 kPa	1411.76
325.15 K, 101.33 kPa	1410.82
326.15 K, 101.33 kPa	1409.88
327.15 K, 101.33 kPa	1408.94
328.15 K, 101.33 kPa	1408
329.15 K, 101.33 kPa	1407.06
330.15 K, 101.33 kPa	1406.12
331.15 K, 101.33 kPa	1405.19
332.15 K, 101.33 kPa	1404.25
333.15 K, 100 kPa	1404.2
333.15 K, 101.33 kPa	1403.32
333.15 K, 250 kPa	1404.3
333.15 K, 500 kPa	1404.5
333.15 K, 1010 kPa	1404.9
333.15 K, 2000 kPa	1405.8
333.15 K, 4990 kPa	1408.2
333.15 K, 10000 kPa	1412.3
333.15 K, 14990 kPa	1416.2
333.15 K, 20010 kPa	1420
333.15 K, 25000 kPa	1423.6
333.15 K, 30010 kPa	1427.3
333.15 K, 34990 kPa	1430.8
333.15 K, 40010 kPa	1434.3
333.15 K, 45000 kPa	1437.6
333.15 K, 50000 kPa	1441
333.15 K, 54990 kPa	1444.3
333.15 K, 60000 kPa	1447.5
334.15 K, 101.33 kPa	1402.39
335.15 K, 101.33 kPa	1401.45
336.15 K, 101.33 kPa	1400.52
337.15 K, 101.33 kPa	1399.59
338.15 K, 101.33 kPa	1398.66
339.15 K, 101.33 kPa	1397.73
340.15 K, 101.33 kPa	1396.8
341.15 K, 101.33 kPa	1395.87
342.15 K, 101.33 kPa	1394.94
343.15 K, 100 kPa	1395
343.15 K, 101.33 kPa	1394.01
343.15 K, 250 kPa	1395.1
343.15 K, 500 kPa	1395.3
343.15 K, 1000 kPa	1395.7
343.15 K, 2000 kPa	1396.6
343.15 K, 4990 kPa	1399.1
343.15 K, 10010 kPa	1403.3
343.15 K, 14910 kPa	1407.2
343.15 K, 20000 kPa	1411.2
343.15 K, 24990 kPa	1414.9
343.15 K, 30010 kPa	1418.7
343.15 K, 34990 kPa	1422.3
343.15 K, 39990 kPa	1425.8
343.15 K, 45000 kPa	1429.3
343.15 K, 50000 kPa	1432.7
343.15 K, 55000 kPa	1436.1
343.15 K, 60000 kPa	1439.4
344.15 K, 101.33 kPa	1393.09
